Laboratory results as given in patent US20150268254A1, “SEBOCYTE CELL CULTURING AND METHODS OF USE” (Children's Hospital Medical Center, priority 2012, published 2015).

What was measured:
sebocytes = details: known effect of reference compound; cited from earlier work
SSG3 cells [1] = experiment: Real-time PCR of lipogenic gene expression in primary SSG3 sebocytes; type: cell-based, human
Description: To ablate TGFβRII in SSG3 cells, shRNA vectors from the CCHMC Heart Institute lenti-shRNA library core (shRNA TGFβRII #197031 and 194992 and a shRNA control) were used. The human library was purchased from Sigma-Aldrich (MISSION shRNA; St. Louis, Mo.). Viral vector was produced by the Viral Vector Core at the Translational Core Laboratories, Cincinnati Children's Hospital Research Foundation. Cells were grown to 80% confluency in 6-well plates before being infected with the lentivirus for 48 h. Infected cells were selected with 1 µg/ml puromycin (Sigma) for 48 h. Following selection, TGFβRII knock down cells were grown in regular media for 48 h before being activated with 5 ng/ml TGFβ1 for 24 h.
(§1) Total RNA was isolated using a Rneasy Mini Kit (Qiagen, Germantown, Md.) and used to produce cDNA (Maxima first strand cDNA synthesis kit, Fermentas, Waltham, Mass.). Reverse transcription (RT) reactions were diluted to 10 ng/pl and 1 pl of each RT was used for real-time PCR. Real-time PCR was performed using the CFX96 real-time PCR System, CFX Manager Software and the SsoFast EvaGreen Supermix reagents (Biorad, Hercules, Calif.). All reactions were run in triplicate and analyzed using the […] with relative expression normalized to GAPDH.
(§2) For Nile red staining, cells or OCT sections were fixed 10 minutes at room temperature in 4% formaldehyde. After 3 wash in 1×PBS, staining with 0.1 pg/ml of Nile red (Sigma) was performed in 0.15M NaCl for 15 minutes at room temperature. For Oil red 0 staining, cells were fixed 15 minutes in 10% formalin, wash with water for 10 minutes and 60% isopropanol before being stained with Oil red 0 (0.7% in 60% isopropanol) for 45 minutes. Cells were rinsed with 60% isopropanol and the nuclei stained with haematoxylin. To trigger differentiation of sebocytes in vitro, linoleic acid (Sigma, 0.1 mM) was added directly to sebocyte media. To prepare cells for extraction of lipids, 20-30 millions of cells were pelleted, washed with 1×PBS and lipid were preserved in the dark at −80° C. under argon until analysis. The qualitative and quantitative composition of lipids in scalp-derived human sebocytes was determined using an Agilent 5973N Gas chromatograph/Mass spectrometer with a SPE cartridge (solid phase extraction) and was performed by Synelvia S.A.S (Labege, France).

SSG3 cells [2] = experiment: Lipogenesis assays (Nile red, Oil red O, electron microscopy, Nile red FACS) in SSG3 cells; type: cell-based, human
Description: as §2
Cells were cultured in 6-well plates at 80% confluence and infected with the lentivirus expressing the shRNAs as previously described. After puromycin selection for 48 h, cells were washed in 1×PBS and treated with working medium with or without Linoleic acid (0.1 mM) for 24 h. The cells were trypsinized, washed once with 1×PBS and neutral lipids were labeled with the fluorescent dye Nile red (1 pg/ml in PBS). 10,000 cells per sample were analyzed using a FACS Canto I (BD Biosciences) equipped with a blue laser (488 nm excitation).
Cells were grown at 80% confluency in sebocyte media and rinsed once with 0.175M sodium cacodylate buffer. Cells were fixed in 3% glutaraldehyde/0.175M cacodylate buffer for 1 hour at 4° C. Dishes were washed twice with 0.175M sodium cacodylate buffer. Cells were post fixed in 1% osmium tetroxide/cacodylate buffer for 1 hour at 4° C. before being washed three times with 0.175M sodium cacodylate buffer. After the final wash with 1.5 ml, cells were scraped and centrifuged for 5 min at 10K. The cell pellet was then resuspended in 1 ml 1% agarose (Type IX ultra-low gelling tempt, Sigma) overnight at 4° C. The samples were then processed through a graded series of alcohols, infiltrated and embedded in LX-112 resin (Ladd Research, Williston, Vt. After polymerization at 60° C. for three days, ultrathin sections (100 nm) were cut using a Reichert-Jung Ultracut E microtome and counterstained in 2% aqueous uranyl acetate and Reynolds lead citrate. Images were taken with a transmission electron microscope (Hitachi H-6750) equipped with a digital camera (AMT 2k×2K tem CCD).

SEB-1 [3] = experiment: Real-time PCR of PPARγ expression in immortalized sebocyte line SEB-1; type: cell-based, human; details: SEB-1, 0.1 mM linoleic acid, 48 h, vs untreated
Description: as §1
as §2, with “To trigger differentiation of sebocytes in vitro, linoleic acid (Sigma, 0.1 mM) was added directly to sebocyte media. To prepare cells for extraction of lipids, 20-30 millions of cells were pelleted, washed with 1×PBS and lipid were preserved in the dark at −80° C. under argon until analysis.” left out

SEB-1 [4] = experiment: Immunoblot of Smad2 phosphorylation in SEB-1; type: cell-based, human; details: 5 ng/ml TGFβ1, one hour
[5] = tested on: sebocytes-derived from breast and face; experiment: Real-time PCR of lipogenic genes in breast- and face-derived sebocytes; type: cell-based, human; details: 5 ng/ml TGFβ1, 24 h
Description: as §1
RNA was isolated from sebocytes-derived from breast and face untreated or treated with 5 ng/ml of TGFβ1 for 24 h and used for real-time PCR. Two experiments were performed and all qPCR reactions were performed in triplicate. Data were normalized to GAPDH expression for each cell population and changes in relative expression were determined using untreated cells as a reference point.

SSG3 sebocytes = experiment: Immunoblot of Smad2 phosphorylation in SSG3 sebocytes; type: cell-based, human; details: 5 ng/ml TGFβ1, one hour
NIKS = experiment: Immunoblot of Smad2 phosphorylation in NIKS keratinocytes; type: cell-based, human; details: 5 ng/ml TGFβ1, one hour
[6] = SSG3, 5 ng/ml TGFβ1, 24 h, vs untreated
[7] = TGFβRII-deficient SSG3 cells, TGFβ1

In the case of `C[C@]12CCC(=O)C[C@@H]1CC[C@@H]1[C@@H]2CC[C@]2(C)[C@@H](O)CC[C@@H]12` [5α-DHT, di-hydrotestosterone], the effect on lipogenesis (sebocytes) is given as “increase lipogenesis” and the effect on proliferation (sebocytes) is given as “increase proliferation”.
In the case of `CC(=O)O[C@]1(C(C)=O)CC[C@H]2[C@@H]3C=C(Cl)C4=CC(=O)[C@@H]5C[C@@H]5[C@]4(C)[C@H]3CC[C@@]21C` [Cyproteron acetate], the effect on lipogenesis (sebocytes) is listed as “decrease lipogenesis”.
In the case of `C[C@]12CC[C@H](O)CC1=CC[C@@H]1[C@@H]2CC[C@]2(C)C(=O)CC[C@@H]12` [DHEA, 5-Dehydroepiandrosterone], the effect on lipogenesis (sebocytes) is given as “increase lipogenesis”.
In the case of `CC1=C(/C=C/C(C)=C/C=C/C(C)=C\C(=O)O)C(C)(C)CCC1` [Isotretinoin, 13-cis retinoic acid], the “effect on cell cycle” value (sebocytes) is given as “cell cycle arrest” and the effect on proliferation (sebocytes) is given as “anti-proliferative effect on sebocytes”.
For `CN(CCOc1ccc(CC2SC(=O)NC2=O)cc1)c1ccccn1` (stereo not shown) [Rosglitazone], the effect on lipogenesis (sebocytes) is listed as “decrease lipogenesis”.
For `CCCCC/C=C\C/C=C\CCCCCCCC(=O)O` [linoleic acid], the FADS2 expression (SSG3 cells [1]; SSG3 cells, 0.1 mM linoleic acid, 24 h and 48 h, vs untreated) was “significant increase of FADS2 expression”, the PPARγ expression (SSG3 cells [1]; SSG3 cells, 0.1 mM linoleic acid, 48 h, vs untreated) was “increase in PPARγ” and the “Nile red flow cytometry: fluorescence (neutral lipids) and granularity” value (SSG3 cells [2]; SSG3, 0.1 mM linoleic acid, 24 h) was “increase of fluorescence and granularity”. For the same molecule, the “lipid droplets by electron microscopy” value (SSG3 cells [2]; SSG3, after linoleic acid treatment vs untreated) was “increase of lipid droplets with higher electron density”, the “cellular lipid distribution by Nile red stain” value (SSG3 cells [2]; SSG3, two days of linoleic acid treatment (0.1 mM)) was “producing lipids” and the PPARγ expression (SEB-1 [3]) was “do not show any significant changes”.
For “TGFβ1: exogenously recombinant TGFβ1, Transforming Growth Factor β ligand”, the “mRNA expression of FADS2” value (SSG3 cells [1]; [6]) was “significantly decreased”, the “mRNA expression of PPARγ” value (SSG3 cells [1]; [6]) was “significantly decreased” and the “decrease in FADS2 gene expression after TGFβ1” value (SSG3 cells [1]; [7]) was “not detected”. For the same molecule, the “decrease in PPARγ gene expression after TGFβ1” value (SSG3 cells [1]; [7]) was “not detected”, the TGFβRII expression (SSG3 cells [1]; control SSG3 cells treated with TGFβ for 24 h) was “decrease of TGFβRII” and the “Smad2 activation (phosphorylated Smad2)” value (SEB-1 [4]) was “activate Smad2”. For the same molecule, the FADS2 expression [5] was “decreased significantly”, the PPARγ expression [5] was “decreased significantly” and the “Smad2 activation (phosphorylated Smad2)” value (SSG3 sebocytes) was “activate Smad2”. For the same molecule, the lipid production (SSG3 cells [2]; SSG3 expressing TGFβRII shRNA, TGFβ1 5 ng/ml, 24 h) was “no effect on the lipid production”, the lipid inclusion (SSG3 cells [2]; SSG3 with non-targeting shRNA control, TGFβ1 5 ng/ml, 24 h) was “decrease in lipid inclusion” and the “Smad2 activation (phosphorylated Smad2)” value (NIKS) was “activate Smad2”.
